Laboratory results from patent publication US6603046B1, “Bis-aromatic a,β-unsaturated ketones” (Lica Pharmaceuticals A/S, priority 1992, dated 2003).
Converted amounts (≈) assume the structure as drawn.

How the values were obtained:
Assay in all cases: organism not typed
[1] = tested on: L. wadsworthii; assay type: cell-based
[2] = tested on: L. bozemanii; assay type: cell-based
[3] = tested on: L. longbeacheae; assay type: cell-based
[4] = tested on: L. domoffli; assay type: cell-based, L. dumoffii

Which results are given for `C=CC(C)(C)c1cc(/C=C/C(=O)c2ccc(O)cc2)c(OC)cc1O` [Licochalcone A, licochalcone A]?
MIC [1]: 2 mg/L (≈ 5.91 µM); MIC [2]: 2 mg/L (≈ 5.91 µM); MIC [3]: 1 mg/L (≈ 2.96 µM); MIC [4]: 2 mg/L (≈ 5.91 µM)
